Reference: patent US9730447B2, “Fungicidal amides” (E I DU PONT DE NEMOURS AND COMPANY, priority 2013, dated 2017)

Legend:
Type in all cases: in vivo
Septoria tritici = test: Test C: preventive spray on wheat seedlings, Septoria tritici (wheat leaf blotch), visual disease rating; conditions: 100 = 100% disease control, 0 = no control, unmarked values
From the text: (§1) General protocol for preparing test suspensions for Tests A-E: the test compounds were first dissolved in acetone in an amount equal to 3% of the final volume and then suspended at the desired concentration (in ppm) in acetone and purified water (50/50 mix by volume) containing 250 ppm of the surfactant Trem® 014 (polyhydric alcohol esters). The resulting test suspensions were then used in Tests A-E. Compounds were sprayed with either a 40 ppm or 10 ppm (*) test suspension to the point of run-off on the test plants which is the equivalent of a rate of 160 g ai/ha or 40 g ai/ha, respectively.
(§2) The test suspension was sprayed to the point of run-off on wheat seedlings. The following day the seedlings were inoculated with a spore suspension of Septoria tritici (the causal agent of wheat leaf blotch) and incubated in a saturated atmosphere at 24° C. for 48 h, and then moved to a growth chamber at 20° C. for 21 days, after which time visual disease ratings were made.
(§3) Results for Tests A-E are given in Table A. In the Table, a rating of 100 indicates 100% disease control and a rating of 0 indicates no disease control (relative to the controls). A dash (-) indicates no test results.

[1] = system: Stagonospora nodorum (also known as Septoria nodorum); test: Test B: preventive spray on wheat seedlings, Stagonospora nodorum (wheat glume blotch), visual disease rating; conditions: 100 = 100% disease control, 0 = no control, unmarked values
From the text: as §1
The test suspension was sprayed to the point of run-off on wheat seedlings. The following day the seedlings were inoculated with a spore suspension of Stagonospora nodorum (also known as Septoria nodorum; the causal agent of wheat glume blotch) and incubated in a saturated atmosphere at 20° C. for 48 h, and then moved to a growth chamber at 20° C. for 6 days, after which time visual disease ratings were made.
as §3

[2] = system: Puccinia recondite f. sp. tritici; test: Test D: preventive spray on wheat seedlings, Puccinia recondite f. sp. tritici (wheat leaf rust), visual disease rating; conditions: 100 = 100% disease control, 0 = no control, unmarked values
From the text: as §1
as §2, with “Puccinia recondite f. sp. tritici;” for “Septoria tritici”, “rust)” for “blotch)”, “20°” for “24°”, “24” for “48”, “6” for “21”
as §3

Botrytis cinerea = test: Test A: preventive spray on tomato seedlings, Botrytis cinerea (gray mold), visual disease rating; conditions: 100 = 100% disease control, 0 = no control relative to controls, unmarked values
From the text: as §1
The test suspension was sprayed to the point of run-off on tomato seedlings. The following day the seedlings were inoculated with a spore suspension of Botrytis cinerea (the causal agent of gray mold on many crops) and incubated in a saturated atmosphere at 20° C. for 48 h, and moved to a growth chamber at 27° C. for 2 days, after which time visual disease ratings were made.
as §3

[3] = system: Erysiphe graminis f. sp. tritici; test: Test E: preventive spray on wheat seedlings, Erysiphe graminis f. sp. tritici (wheat powdery mildew), visual disease rating; conditions: 100 = 100% disease control, 0 = no control, unmarked values
From the text: as §1
The test suspension was sprayed to the point of run-off on wheat seedlings. The following day the seedlings were inoculated with a spore dust of Erysiphe graminis f. sp. tritici, (the causal agent of wheat powdery mildew) and incubated in a growth chamber at 20° C. for 8 days, after which time visual disease ratings were made.
as §3

SMILES | Test C disease control rating (Septoria tritici) [%] | Test B disease control rating [1] [%] | Test D disease control rating [2] [%] | Test A disease control rating (Botrytis cinerea) [%] | Test E disease control rating [3] [%]
O=C(Nc1ccccc1-c1ccc(-n2ccc(Br)n2)nc1)c1ncccc1C(F)(F)F [compound 13] | 100 | 98 | 100 | 98 | 99
Cc1ccc(-c2ccc(-c3ccccc3NC(=O)c3cn(C)nc3C(F)F)cn2)s1 [compound 21] | 81 | 97 | 100 | 99 | 43
Cc1ccc(-c2ccc(-c3ccccc3NC(=O)c3cn(C)nc3C(F)F)cn2)o1 [compound 22] | 33 | 0 | 100 | 94 | 21
O=C(Nc1ccccc1-c1ccc(-n2ccc(C(F)(F)F)n2)nc1)c1ncccc1Cl [compound 23] | 100 | 0 | 96 | 20 | 99
O=C(Nc1ccccc1-c1ccc(-n2ccc(C(F)(F)F)n2)nc1)c1nccnc1C(F)(F)F [compound 24] | 100 | 100 | 100 | 99 | 100
O=C(Nc1ccccc1-c1ccc(-n2ccc(C(F)(F)F)n2)nc1)c1nccnc1Cl [compound 25] | 100 | 82 | 98 | 99 | 90
O=C(Nc1ccccc1-c1ccc(-n2ccc(C(F)(F)F)n2)nc1)c1ncccc1C(F)(F)F [compound 26] | 100 | 90 | 99 | 88 | 100
Cc1nc(C(F)(F)F)c(C(=O)Nc2ccccc2-c2ccc(-n3ccc(C(F)(F)F)n3)nc2)s1 [compound 92] |  | 60 | 100 | 0 | 98
Cc1ccsc1C(=O)Nc1ccccc1-c1ccc(-n2ccc(C(F)(F)F)n2)nc1 [compound 93] |  | 97 | 100 | 0 | 99
Cn1cc(C(=O)Nc2ccccc2-c2ccc(-n3ccc(C(F)(F)F)n3)nc2)c(C(F)(F)F)n1 [compound 94] |  | 98 | 100 | 0 | 99
Cc1ccsc1C(=O)Nc1ccccc1-c1cnc(-n2ccc(C(F)(F)F)n2)c(Cl)c1 [compound 95] |  | 100 | 100 | 0 | 98
O=C(Nc1ccccc1-c1cnc(-n2ccc(C(F)(F)F)n2)c(Cl)c1)c1nccnc1Cl [compound 96] |  | 60 | 99 | 0 | 96
Cn1cc(C(=O)Nc2ccccc2-c2cnc(-n3ccc(C(F)(F)F)n3)c(Cl)c2)c(C(F)(F)F)n1 [compound 97] |  | 87 | 100 | 0 | 99
